Experimental data reported in patent US8492409B2, “1-substituted pyridyl-pyrazolyl amide compounds and uses thereof” (Sinochem Corporation, priority 2008, dated 2013).
Like-named read-outs stand apart in the source and are kept apart here.

Legend:
[1] = test system: beet armyworm (Laphygma exigua Hubner); experiment: Test against beet armyworm (leaf disc spray); assay type: in vivo; conditions: Spodoptera exigua, foliar, 96 h, after 96 h; for mortality at 0.3 ppm / mortality at 0.6 ppm: parallel test; for mortality at 1 ppm / mortality at 10 ppm: third instar
Protocol: (§1) According to the solubility of test compounds, the compounds are dissolved in acetone or dimethyl sulfoxide, and then diluted with 0.1% aqueous solution of Tween 80 to form 50 ml test liquid, the content of acetone or dimethyl sulfoxide in the total solution is not more than 10%.
The cabbage leaves were perforated to get 1 cm diameter leaf discs by the hole puncher. Certain concentrations of test compounds were sprayed on both sides of the discs at the spray volume of 0.5 ml by Airbrush. Eight test insects (third instar) were introduced on each treatment after drying. Each treatment repeated 3 times. The treated discs were placed in a chamber of 24° C., 60%-70% relative humidity, no light. After 96 h, the number of surviving insects was investigated and the mortality was calculated.

[2] = test system: army worm (Mythimna separata); experiment: Test against army worm (corn leaf dip); assay type: in vivo; conditions: foliar, third instar, after 72 h
Protocol: as §1
The middle part of fresh corn leaves were chosen and cut into 3 cm sects. The sects were dipped into the solution of certain concentration of test compounds for 10 seconds, dried and placed in 9 cm diameter Petri dish. Eight regular health insects (third instar) were introduced on each treatment. Each treatment was repeated for 4 times. The pure water was set as CK. The treated discs were placed in a chamber of 24° C., 60%-70% relative humidity and day light. After 72 h, the number of surviving insects was investigated and the mortality rates were calculated.

[3] = test system: Diamondback moth (Plutella xylostella); experiment: Test against diamondback moth (cabbage leaf disc dip); assay type: in vivo; conditions: foliar, third instar, after 72 h
Protocol: as §1
The leaves of cabbage grown in greenhouse were chosen, removed the surface waxy layer and perforated to get 2 cm diameter leaf discs by the hole puncher. The discs were dipped in a solution of certain concentrations of test compounds for 10 seconds, dried and placed in 9 cm diameter Petri dish. Eight regular health insects (third instar) were introduced on each treatment. Each treatment was repeated for 4 times. The pure water was set as CK. The treated discs were placed in a chamber of 24° C., 60%-70% relative humidity and day light. After 72 h, the number of surviving insects was investigated and the mortality was calculated.

[4] = test system: striped stem borer (Chilo suppressalis (Walker)); experiment: Test against striped stem borer (artificial feed film); assay type: in vivo
Protocol: as §1
The 6 well culture plates were chosen, 5 mL artificial feed was added into each well. After the feed solidified, 0.2 mL solution of certain concentrations of test compounds was added into per well with a continuous sampler and made the uniform film in the feed surface. Eight regular health insects (second instar) were introduced on each treatment after drying. Each treatment was repeated for 4 times. The pure water was set as CK. The treated discs were placed in a chamber of 24° C., 60%-70% relative humidity and day light. After 72 h, the number of surviving insects was investigated and the mortality was calculated.

[5] = test system: rice leaf folder (Cnaphalocrocis medinalis Guenee); experiment: Field test against rice leaf folder; assay type: in vivo; conditions: 168 h, spray 450 L/ha, after 7 d
Protocol: A certain concentrations of test compounds were sprayed on leaves at the time of hatching peak of rice leaf folder. Spay volume was 450 L/ha. The section area of rice was 32 m^2. Each treatment was repeated for 3 times. After 7d, the number of surviving insects was investigated and the mortality was calculated.

[6] = test system: tomato late blight (Phytophthora infestans); experiment: microbe, parasite or virus in culture; assay type: cell-based; conditions: 240 h, read-out: control efficiency against tomato late blight (rate of fungi inhibition)
[7] = test system: cucumber anthracnose (Colletotrichum lagenarium, CA); experiment: Fungicidal activity test against cucumber anthracnose in vivo; conditions: 400 ppm spray on potted cucumber seedlings; visual assessment after 5 days
[8] = test system: fall armyworm (Spodoptera frugiperda); conditions: 10 ppm; cited from earlier work
[9] = test system: armyworm (Mythimna seperata); conditions: 50 ppm; cited from earlier work
[10] = 0.3 ppm, Table 3, read-out: Mortality (%) against beet armyworm
[11] = 10 ppm, read-out: mortality against beet armyworm
[12] = parallel test, Table 5, after 72 h

Compound: CNC(=O)c1cc(Cl)cc(Cl)c1NC(=O)c1cc(Br)nn1-c1ncc(Cl)cc1Cl [Compound 19]
- mortality at 0.3 ppm [1, 10]: 87.5%
- mortality at 1 ppm [1]: ≥ 90%
- mortality at 10 ppm [1, 11]: ≥ 90%
- mortality at 0.4 ppm [2]: ≥ 90%
- mortality at 0.8 ppm [3]: > 90%
- mortality at 5 ppm [4, 12]: 90%
- mortality at 10 ppm [4, 12]: 100%
- mortality at 10 ppm ([4]; second instar, after 72 h): ≥ 90%
- mortality at 30 g/ha [5]: 56%
- mortality at 60 g/ha [5]: 63%

Compound: CNC(=O)c1cc(Cl)cc(C)c1NC(=O)c1cc(C)nn1-c1ncc(Cl)cc1Cl [Compound 1]
- mortality at 10 ppm ([1]; read-out: mortality against beet armyworm, 10 ppm): ≥ 90%
- inhibition at 25 ppm [6]: > 90%
- protective controlling effect against cucumber anthracnose [7]: more than 90%

Compound: CNC(=O)c1cc(Cl)cc(C)c1NC(=O)c1cc(C(F)(F)F)nn1-c1ncc(Cl)cc1Cl [Compound 3]
- mortality at 1 ppm [1]: ≥ 90%
- mortality at 10 ppm [1, 11]: ≥ 90%

Compound: Cc1cc(Cl)cc(C(N)=O)c1NC(=O)c1cc(Br)nn1-c1ncc(Cl)cc1Cl [Compound 15]
- mortality at 10 ppm [1, 11]: ≥ 90%

Compound: CCNC(=O)c1cc(Cl)cc(C)c1NC(=O)c1cc(Br)nn1-c1ncc(Cl)cc1Cl [Compound 22]
- mortality at 1 ppm [1]: ≥ 90%
- mortality at 10 ppm [1, 11]: ≥ 90%

Compound: CNC(=O)c1cc(Cl)cc(C)c1NC(=O)c1cc(Br)nn1-c1ncccc1Cl [KC2, chlorantraniliprole, reference compound]
- mortality at 5 ppm [4, 12]: 60%
- mortality at 10 ppm [4, 12]: 90%
- mortality at 30 g/ha [5]: 34%
- mortality at 60 g/ha [5]: 52%
- insecticidal activity against fall armyworm [8]: highly effective

Compound: CNC(=O)c1cc(Cl)cc(C)c1NC(=O)c1cc(Br)nn1-c1ncc(Br)cc1Cl [KC1, reference compound]
- mortality at 0.3 ppm ([1]; read-out: Mortality (%) against beet armyworm, 0.3 ppm, Table 3): 0%
- mortality at 0.3 ppm ([1]; read-out: Mortality (%) against beet armyworm, 0.3 ppm, Table 4): 12.5%
- mortality at 0.6 ppm ([1]; read-out: Mortality (%) against beet armyworm, 0.6 ppm, Table 4): 75.5%
- insecticidal activity against armyworm [9]: highly effective

Compound: CNC(=O)c1cc(Cl)cc(C)c1NC(=O)c1cc(Br)nn1-c1ncc(Cl)cc1Cl [Compound 18]
- mortality at 0.3 ppm [1, 10]: 50%
- mortality at 0.3 ppm ([1]; 0.3 ppm, Table 4, read-out: Mortality (%) against beet armyworm): 62%
- mortality at 0.6 ppm ([1]; 0.6 ppm, Table 4, read-out: Mortality (%) against beet armyworm): 100%
- mortality at 1 ppm [1]: ≥ 90%
- mortality at 10 ppm [1, 11]: ≥ 90%
- mortality at 0.4 ppm [2]: ≥ 90%
- mortality at 10 ppm ([4]; second instar, after 72 h): ≥ 90%
